# In patent US8945397B2, “Methods of inhibiting cyanobacteria growth by administering gramine derivatives” (priority 2012, dated 2015):
# Entries after “also recorded” stand apart in the source; their conditions may differ.
# Assays:
# M. Aeruginosa [1] = test: Liquid culture optical absorption assay (OD600) of M. aeruginosa growth, 15 days; format: cell-based, Microcystis aeruginosa; conditions: for OD600 Measured at Day 15 (Starting OD600 at Day 0 is 0.100): 0.5 mg/L compound, liquid culture, control 2.83; for Inhibition of M. aeruginosa growth in words (liquid culture): 0.5 mg/L, Table 2 and FIG. 3
# Method: To quantitatively measure M. Aeruginosa cell growth in responding to various gamine compounds, cell densities were determined by an optical absorption assay as measured by a spectrophotometer (Nanodrop 2000, Thermo Scientific). In the optical absorption assay, the absorbance of radiation (light) is measured as a function of frequency (wavelength). For this optical absorption assay, the algal cell density was determined at 600 nm wavelength. Equal amount of starting cells (optical density at wavelength 600 nm, OD600, was at 0.100 on Day 0) were placed in freshwater culture for 15 days of growth. After 15 days, the algae cell suspension is pipetted into a cuvette and placed within the spectrophotometer for the optical absorption assay.
# There is a clear and distinct decrease in M. Aeruginosa algae growth when administered with 5,6-dichlogramine (Compound No. 9) and with 5,6,7-trichlorogramine (Compound No. 12) compared to M. Aeruginosa algae growth in control samples.
# [2] = system: M. aeruginosa cyanobacteria, isolate strain 2667; test: Petri dish screen of gramine compounds for M. aeruginosa growth inhibition; format: cell-based, Microcystis aeruginosa; conditions: about 0.5 mg/L compound in BG-11 medium, after 15 days, FIG. 2
# Method: The screen tested the compounds on M. aeruginosa cyanobacteria, isolate strain 2667 from Culture Collection of Algae (CCA) at the University of Texas at Austin. For the initial screening test, the twelve compounds were each administered at different concentrations of: 0.5 mg/L, 1.0 mg/L, 2.0 mg/L, 4.0 mg/L, and 8.0 mg/L. The compounds were added to a freshwater culture medium (BG-11 Medium from the CCA, UTEX) in petri dishes. The petri dish plates were then incubated at about 22° C. in a lighted growth chamber with about 16-hr light and about 8-hr dark. M. aeruginosa algae growth in the petri dishes were examined and documented after 15 days of incubation.
# M. aeruginosa cells were streaked out on BG-11 medium that contained about 0.5 mg/L of the indicated compound. […] The faint algae smears for petri dishes streaked with 5,6-dichlogramine show the original algae cells that had died in the petri dish. […] The faint algae smears for petri dishes streaked with 5,6,7-trichlogramine show the original algae cells that had died in the petri dish.
# Arabidopsis thaliana = test: Toxicity to Arabidopsis thaliana plants in petri dishes; format: in vivo; conditions: 8 mg/L in MS medium
# Method: The effects of both compounds were tested on Arabidopsis thaliana, a small flowering plant that is widely used as an experimental model plant for laboratory studies. A. thaliana seeds were placed in petri dishes containing standard plant growth media with one gramine compound added (about 8 mg/L). For the control sample, the seeds were placed on the identical growth media without any gramine compound added. All petri dishes containing A. thaliana were kept in a lighted plant growth chamber at 22° C. with cycles of 16-hr light and 8-hr dark. Seed germination and seedling development were closely monitored and documented every 24 hours.
# (§1) FIGS. 8a and 8b show images of A. thaliana plants after 8 days of plant growth, or 8 days after germination. The A. thaliana plants were grown in petri dishes filled with Murashige and Skoog medium (MS plant growth medium containing both macronutrients, micronutrients, and vitamins) purchased from Sigma (Cat #M5519)).
# as §1, with “9a” for “8a”, “9b” for “8b”, “10” for “8”, “of” for “of plant”
# M. Aeruginosa [3] = test: Effective potency duration test in 1 L tap fresh water; format: cell-based, Microcystis aeruginosa; conditions: about 0.05 mg/L; for OD600 after 180 days / OD600 after 15 days of M. aeruginosa growth: 1 L tap fresh water; for OD600 after 15 days of M. aeruginosa growth: unadministered control 0.119; for duration of effectiveness after administration: single administration
# Method: Both 5,6-dichlorogramine and 5,6,7-trichlorogramine are not only potent M. aeruginosa growth inhibitors, but they are effective inhibitors for a long period of time. In an experiment to test the effective potency duration of the compound, an equal amount of M. aeruginosa was grown in each of two containers, each containing about 1 L of fresh water from an urban sink tap. One container was administered with about 0.05 mg/L of 5,6-dichlorogramine, and the control container was not administered with any compounds. After 15 days of M. aeruginosa growth, the OD600 measurement for the unadministered M. aeruginosa freshwater sample was 0.119. The unadministered M. aeruginosa freshwater sample was discarded after 15 days. In contrast, after 15 days of M. aeruginosa growth, the OD600 measurement for the 5,6-dichlorogramine administered freshwater sample was 0.003. After 180 days, the OD600 measurement for the M. aeruginosa freshwater sample administered with 5,6-dichlorogramine remained at 0.003.
# In another experiment, an equal amount of M. aeruginosa was grown in each of two containers, each containing about 1 L of fresh water from an urban sink tap. One container was administered with about 0.05 mg/L of 5,6,7-trichlorogramine, and the control container was not administered with any compounds. After 15 days of M. aeruginosa growth, the OD600 measurement for the unadministered M. aeruginosa freshwater sample was 0.119. The unadministered M. aeruginosa freshwater sample was discarded after 15 days. In contrast, after 15 days of M. aeruginosa growth, the OD600 measurement for the 5,6,7-trichlrogramine administered freshwater sample was 0.003. After 180 days, the OD600 measurement for the M. aeruginosa freshwater sample administered with 5,6,7-trichlorogramine remained at 0.003.
# M. Aeruginosa [4] = test: Optical absorption assay of M. aeruginosa growth at varying concentrations, 8 days, with LC50 calculation; format: cell-based, Microcystis aeruginosa; conditions: for OD600 as % of the corresponding OD600 measurement of the control sample: 8 days; for OD600 of M. aeruginosa after 8 days: start OD600 0.1, control about 2.4; for LC50: Microcystis aeruginosa, 192 h, read-out: Lethal Concentration 50 (LC50)
# Method: (§2) Different concentrations of 5,6-dichlorogramine were administered to M. aeruginosa cells as indicated. M. aeruginosa cell density measurements were taken every 24 hours. […] During the first 3 days, the M. aeruginosa cell densities for the control sample and the 5,6-dichlorogramine samples were similar. But starting on day 4, there was larger differentiation in M. aeruginosa cell densities between the control samples and the 5,6-dichlorogramine administered samples. […] In contrast, the OD600 of M. aeruginosa after 8 days of exposure to 0.05 mg/L 5,6-dichlorogramine was about 0.9, only about 38% of the corresponding OD600 measurement of the control sample. The OD600 measurement for M. aeruginosa after 8 days of exposure to about 0.2 mg/L 5,6-dichlorogramine was about 0.6, only about 25% of the corresponding OD600 measurement of the control sample. The OD600 measurement for M. aeruginosa after 8 days of exposure to about 0.8 mg/L 5,6-dichlorogramine was about 0.3, only about 13% of the corresponding OD600 measurement of the control sample.
# as §2, with “5,6,7-trichlorogramine” for “5,6-dichlorogramine”
# LC50 is a common way to describe the median lethal concentration of an administered agent in a medium, such as air or water, needed to kill half of the organism population living within the medium. LC50 is a well-known method of describing the acute toxicity of an administered agent on the target organism population.
# (§3) In FIG. 6, the optical density measurement (OD600) of the M. aeruginosa cells on day 8 was plotted against the administered 5,6-dichlorogramine concentration. […] Half of about 2.4 is about 1.2, and according to FIG. 6, the 1.2 optical density measurement corresponds to an approximately 0.03 mg/L 5,6-dichlorogramine concentration. Based on these calculations, the effective amount of 5,6-dichlorogramine to administer to control the growth and spread of M. aeruginosa algae in fresh water may be a 5,6-dichlorogramine concentration ranging between about 0.01 mg/L and about 0.05 mg/L, and may be more specifically about 0.03 mg/L.
# as §3, with “7,” for “6,”, “(ODo)” for “(OD600)”, “5,6,7-trichlorogramine” for “5,6-dichlorogramine”
# M. Aeruginosa [5] = conditions: according to the Hong articles; cited from earlier work
# N. closterium algae = conditions: Li et al. 2009; cited from earlier work
# [6] = system: M. aeruginosa cyanobacterium; conditions: U.S. Pat. No. 7,612,049; cited from earlier work
smiles,measurement,setting,value
"CN(C)Cc1c[nH]c2ccc(Br)cc12 [compound 2, 5-bromogramine]",OD600 Measured at Day 15 (Starting OD600 at Day 0 is 0.100),M. Aeruginosa [1],1.95
same,Inhibition of M. aeruginosa growth in words (liquid culture),M. Aeruginosa [1],some inhibitory effects
"CN(C)Cc1c[nH]c2ccc(Cl)cc12 [Compound No. 1, 5-chlorogramine]",OD600 Measured at Day 15 (Starting OD600 at Day 0 is 0.100),M. Aeruginosa [1],1.89
same,Inhibition of M. aeruginosa growth in words (liquid culture),M. Aeruginosa [1],some inhibitory effects
"CN(C)Cc1c[nH]c2cccc(OCc3ccccc3)c12 [compound 8, 4-benzyloxygramine]",OD600 Measured at Day 15 (Starting OD600 at Day 0 is 0.100),M. Aeruginosa [1],2.54
"CN(C)Cc1c[nH]c2c(Cl)c(Cl)c(Cl)cc12 [Compound No. 12, 5,6,7-trichlorogramine]",Inhibition of M. aeruginosa growth in words (liquid culture),M. Aeruginosa [1],significantly inhibit the growth
same,M. aeruginosa growth in petri dishes,[2],no M. aeruginosa growth; also recorded: inhibited M. aeruginosa growth completely
same,growth and development of A. thaliana versus control,Arabidopsis thaliana; 10 days after germination,no growth or developmental difference
same,OD600 after 180 days,M. Aeruginosa [3],0.003
same,OD600 after 15 days of M. aeruginosa growth,M. Aeruginosa [3],0.003
same,duration of effectiveness after administration,M. Aeruginosa [3],at least 180 days
same,OD600 as % of the corresponding OD600 measurement of the control sample,M. Aeruginosa [4]; 0.05 mg/L,about 38%
same,OD600 of M. aeruginosa after 8 days,M. Aeruginosa [4]; 0.05 mg/L,about 0.9
same,LC50,M. Aeruginosa [4],~0.03 µg/mL
same,OD600 as % of the corresponding OD600 measurement of the control sample,M. Aeruginosa [4]; about 0.2 mg/L,about 25%
same,OD600 of M. aeruginosa after 8 days,M. Aeruginosa [4]; about 0.2 mg/L,about 0.6
same,OD600 as % of the corresponding OD600 measurement of the control sample,M. Aeruginosa [4]; about 0.8 mg/L,about 13%
same,OD600 of M. aeruginosa after 8 days,M. Aeruginosa [4]; about 0.8 mg/L,about 0.3
"CN(C)Cc1c[nH]c2ccccc12 [N,N-dimethyl-3-amino-methylindole]",concentration needed to inhibit the growth of M. aeruginosa,M. Aeruginosa [5],at least 8 mg/L
"CN(C)Cc1c[nH]c2cccc(C#N)c12 [compound 11, 4-cyanogramine]",OD600 Measured at Day 15 (Starting OD600 at Day 0 is 0.100),M. Aeruginosa [1],2.50
"CN(C)Cc1c[nH]c2cc(OCc3ccccc3)ccc12 [compound 7, 6-benzyloxygramine]",OD600 Measured at Day 15 (Starting OD600 at Day 0 is 0.100),M. Aeruginosa [1],2.12
same,Inhibition of M. aeruginosa growth in words (liquid culture),M. Aeruginosa [1],some inhibitory effects
"CN(C)Cc1c[nH]c2cc(Cl)c(Cl)cc12 [Compound No. 9, 5,6-dichlorogramine]",Inhibition of M. aeruginosa growth in words (liquid culture),M. Aeruginosa [1],significantly inhibit the growth
same,M. aeruginosa growth in petri dishes,[2],no M. aeruginosa growth; also recorded: inhibited M. aeruginosa growth completely
same,growth and development of A. thaliana versus control,Arabidopsis thaliana; 8 days after germination,no growth or developmental difference
same,OD600 after 180 days,M. Aeruginosa [3],0.003
same,OD600 after 15 days of M. aeruginosa growth,M. Aeruginosa [3],0.003
same,duration of effectiveness after administration,M. Aeruginosa [3],at least 180 days
same,OD600 as % of the corresponding OD600 measurement of the control sample,M. Aeruginosa [4]; 0.05 mg/L,about 38%
same,OD600 of M. aeruginosa after 8 days,M. Aeruginosa [4]; 0.05 mg/L,about 0.9
same,LC50,M. Aeruginosa [4],~0.03 µg/mL
same,OD600 as % of the corresponding OD600 measurement of the control sample,M. Aeruginosa [4]; about 0.2 mg/L,about 25%
same,OD600 of M. aeruginosa after 8 days,M. Aeruginosa [4]; about 0.2 mg/L,about 0.6
same,OD600 as % of the corresponding OD600 measurement of the control sample,M. Aeruginosa [4]; about 0.8 mg/L,about 13%
same,OD600 of M. aeruginosa after 8 days,M. Aeruginosa [4]; about 0.8 mg/L,about 0.3
same,inhibition of growth of saltwater N. closterium algae,N. closterium algae,inhibit the growth
"COc1ccc2[nH]cc(CN(C)C)c2c1 [compound 3, 5-methoxygramine]",OD600 Measured at Day 15 (Starting OD600 at Day 0 is 0.100),M. Aeruginosa [1],2.45
"COc1cccc2[nH]cc(CN(C)C)c12 [compound 10, 4-methoxygramine]",OD600 Measured at Day 15 (Starting OD600 at Day 0 is 0.100),M. Aeruginosa [1],2.66
"CN(C)Cc1c[nH]c2ccc(C#N)cc12 [compound 5, 5-cyanogramine]",OD600 Measured at Day 15 (Starting OD600 at Day 0 is 0.100),M. Aeruginosa [1],2.32
N[C@H]1C(O)O[C@H](CO)[C@@H](O)[C@@H]1O (some centres unmarked) [glucosamine],concentration to inhibit the growth of M. aeruginosa,[6],10-50 ppm
"Cc1cccc2[nH]cc(CN(C)C)c12 [compound 4, 4-methylgramine]",OD600 Measured at Day 15 (Starting OD600 at Day 0 is 0.100),M. Aeruginosa [1],2.49
